Assay results: patent US10765114B2, “4-amino-6-(pyridyl and 2-substitutedphenyl)-picolinates and 6-amino-2-(pyridyl and 2-substitutedphenyl)-pyrimidine-4-carboxylates and their use as herbicides” (Dow AgroSciences LLC, priority 2013, dated 2020)

How the values were obtained:
Test in all cases: Postemergence Herbicidal Activity in Direct Seeded Rice
Type in all cases: in vivo
[1] = test system: BRAPP: broadleaf signalgrass, Brachiaria platyphylla; settings: for Visual Growth Reduction (%) 21 Days After Application, BRAPP: postemergence, direct seeded rice; for GR50, BRAPP: Growth reduction of 50% of plant growth; for GR50, BRAPP / GR80, BRAPP: probit analysis; for GR80, BRAPP: Growth reduction of 80% of plant growth
Text: (§1) Seeds or nutlets of the desired test plant species were planted in a soil matrix prepared by mixing a loam soil (43 percent silt, 19 percent clay, and 38 percent sand, with a pH of about 8.1 and an organic matter content of about 1.5 percent) and river sand in an 80 to 20 ratio. The soil matrix was contained in plastic pots with a surface area of 139.7 cm^2. When required to ensure good germination and healthy plants, a fungicide treatment and/or other chemical or physical treatment was applied. The plants were grown for 10-17 days in a greenhouse with an approximate 14-h photoperiod which was maintained at about 29° C. during the day and 26° C. during the night. Nutrients and water were added on a regular basis and supplemental lighting was provided with overhead metal halide 1000-Watt lamps as necessary. The plants were employed for testing when they reached the second or third true leaf stage.
(§2) A weighed amount, determined by the highest rate to be tested, of each test compound was placed in 25 mL glass vials and dissolved in a volume of 97:3 v/v acetone-DMSO to obtain 12× stock solutions. […] The concentrated stock solutions were added to the spray solutions so that the final acetone and DMSO concentrations were 16.2% and 0.5%, respectively. Spray solutions were diluted to the appropriate final concentrations with the addition of 10 mL of an aqueous mixture of 1.5% (v/v) Agri-dex crop oil concentrate. The final spray solutions contained 1.25% (v/v) Agri-dex crop oil concentrate. Compound requirements are based upon a 12 mL application volume at a rate of 187 L/ha. Formulated compounds were applied to the plant material with an overhead Mandel track sprayer equipped with 8002E nozzles calibrated to deliver 187 L/ha over an application area of 0.503 square meters (m^2) at a spray height of 18 inches (43 cm) above average plant canopy height. Control plants were sprayed in the same manner with the solvent blank.
(§3) The treated plants and control plants were placed in a greenhouse as described above and watered by sub-irrigation to prevent wash-off of the test compounds. After 20-22 days, the condition of the test plants, compared with that of the untreated plants, was determined visually and scored on a scale of 0 to 100 percent where 0 corresponds to no injury and 100 corresponds to complete kill and presented as indicated in Table A.
(§4) By applying the well-accepted probit analysis as described by J. Berkson in Journal of the American Statistical Society, 48, 565 (1953) and by D. Finney in “Probit Analysis” Cambridge University Press (1952), herbicidal injury of a specific compound at various rates can be used to calculate GR20, GR50, GR80 and GR90 values, which are defined as growth reduction factors that correspond to the effective dose of herbicide required to provide plant growth reduction (GR) of 20 percent, 50 percent, 80 percent and 90 percent, respectively. Probit analysis was applied to data collected from multiple dose rates of individual compounds utilizing the procedures explained in the following examples. The analysis of those dose rates is captured in the following tables

[2] = test system: CYPSS: sedge including small-flower flatsedge (Cyperus difformis), yellow nutsedge (Cyperus esculentus), rice flatsedge (Cyperus iria); settings: for Visual Growth Reduction (%) 21 Days After Application, CYPSS: postemergence, direct seeded rice; for GR50, CYPSS: Growth reduction of 50% of plant growth; for GR50, CYPSS / GR80, CYPSS: probit analysis; for GR80, CYPSS: Growth reduction of 80% of plant growth
Text: as §1, §2, §3, §4

[3] = test system: ECHSS: including barnyardgrass, (Echinochloa crus-galli), junglerice, (Echinochloa colonum); settings: for Visual Growth Reduction (%) 21 Days After Application, ECHSS: postemergence, direct seeded rice; for GR50, ECHSS: Growth reduction of 50% of plant growth; for GR50, ECHSS / GR80, ECHSS: probit analysis; for GR80, ECHSS: Growth reduction of 80% of plant growth
Text: as §1, §2, §3, §4

[4] = test system: SEBEX: hemp sesbania, Sesbania exaltata; settings: for Visual Growth Reduction (%) 21 Days After Application, SEBEX: postemergence, direct seeded rice; for GR50, SEBEX: Growth reduction of 50% of plant growth; for GR50, SEBEX / GR80, SEBEX: probit analysis; for GR80, SEBEX: Growth reduction of 80% of plant growth
Text: as §1, §2, §3, §4

[5] = test system: SCPJU: Japanese bulrush, Schoenoplectus juncoides; settings: for Visual Growth Reduction (%) 21 Days After Application, SCPJU: postemergence, direct seeded rice; for GR50, SCPJU: Growth reduction of 50% of plant growth; for GR50, SCPJU / GR80, SCPJU: probit analysis; for GR80, SCPJU: Growth reduction of 80% of plant growth
Text: as §1, §2, §3, §4

ORYSS: Oryza sativa = settings: for Visual Growth Reduction (%) 21 Days After Application, ORYSS: postemergence, direct seeded rice; for GR20, ORYSS: Growth reduction of 20% of plant growth, probit analysis
Text: as §1, §2, §3, §4

[6] = test system: LEFSS: sprangletop including Chinese sprangletop (Leptochloa chinensis), green sprangletop (Leptochloa dubia); settings: for Visual Growth Reduction (%) 21 Days After Application, LEFSS: postemergence, direct seeded rice; for GR50, LEFSS: Growth reduction of 50% of plant growth; for GR50, LEFSS / GR80, LEFSS: probit analysis; for GR80, LEFSS: Growth reduction of 80% of plant growth
Text: as §1, §2, §3, §4

| Compound | Visual Growth Reduction (%) 21 Days After Application, BRAPP ([1]; 35 g ai/ha) | Visual Growth Reduction (%) 21 Days After Application, BRAPP ([1]; 70 g ai/ha) | GR50, BRAPP [1] [g ai/ha] | GR80, BRAPP [1] [g ai/ha] | Visual Growth Reduction (%) 21 Days After Application, CYPSS ([2]; 35 g ai/ha) | Visual Growth Reduction (%) 21 Days After Application, CYPSS ([2]; 70 g ai/ha) | GR50, CYPSS [2] [g ai/ha] | GR80, CYPSS [2] [g ai/ha] | Visual Growth Reduction (%) 21 Days After Application, ECHSS ([3]; 35 g ai/ha) | Visual Growth Reduction (%) 21 Days After Application, ECHSS ([3]; 70 g ai/ha) | GR50, ECHSS [3] [g ai/ha] | GR80, ECHSS [3] [g ai/ha] | Visual Growth Reduction (%) 21 Days After Application, SEBEX ([4]; 35 g ai/ha) | Visual Growth Reduction (%) 21 Days After Application, SEBEX ([4]; 70 g ai/ha) | GR50, SEBEX [4] [g ai/ha] | GR80, SEBEX [4] [g ai/ha] | GR50, SCPJU [5] [g ai/ha] | GR80, SCPJU [5] [g ai/ha] | Visual Growth Reduction (%) 21 Days After Application, ORYSS (ORYSS: Oryza sativa; 35 g ai/ha) | Visual Growth Reduction (%) 21 Days After Application, ORYSS (ORYSS: Oryza sativa; 70 g ai/ha) | further results |
| --- | --- | --- | --- | --- | --- | --- | --- | --- | --- | --- | --- | --- | --- | --- | --- | --- | --- | --- | --- | --- | --- |
| COC(=O)c1nc(-c2ccc(C(F)(F)F)nc2)c(F)c(N)c1Cl [Compound 59, methyl 4-amino-5-chloro-3-fluoro-6′-(trifluoromethyl)-[2,3′-bipyridine]-6-carboxylate] | B (85-94) | B (85-94) | 3 | 16 | A (95-100) | A (95-100) | 2 | 3 | B (85-94) | B (85-94) | 3 | 15 | A (95-100) | A (95-100) | 1 | 1 | <17.5 | <17.5 | E (45-59) | E (45-59) | Visual Growth Reduction (%) 21 Days After Application, SCPJU ([5]; 35 g ai/ha): A (95-100); Visual Growth Reduction (%) 21 Days After Application, SCPJU ([5]; 70 g ai/ha): A (95-100); GR20, ORYSS (ORYSS: Oryza sativa): 18 g ai/ha; Visual Growth Reduction (%) 21 Days After Application, LEFSS ([6]; 35 g ai/ha): D (60-74); Visual Growth Reduction (%) 21 Days After Application, LEFSS ([6]; 70 g ai/ha): B (85-94); GR50, LEFSS [6]: 27 g ai/ha; GR80, LEFSS [6]: 48 g ai/ha |
| COC(=O)c1nc(-c2ccc(C(F)(F)F)nc2)c(Cl)c(N)c1Cl [Compound 83] | A (95-100) | A (95-100) | 6 | 16 | A (95-100) | A (95-100) | 2 | 3 | A (95-100) | A (95-100) | 3 | 9 | A (95-100) | A (95-100) | 2 | 5 | <17.5 | <17.5 | E (45-59) | F (30-44) | Visual Growth Reduction (%) 21 Days After Application, SCPJU ([5]; 35 g ai/ha): A (95-100); Visual Growth Reduction (%) 21 Days After Application, SCPJU ([5]; 70 g ai/ha): A (95-100); GR20, ORYSS (ORYSS: Oryza sativa): 23 g ai/ha; Visual Growth Reduction (%) 21 Days After Application, LEFSS ([6]; 35 g ai/ha): B (85-94); Visual Growth Reduction (%) 21 Days After Application, LEFSS ([6]; 70 g ai/ha): D (60-74); GR50, LEFSS [6]: 27 g ai/ha; GR80, LEFSS [6]: 53 g ai/ha |
| COC(=O)c1nc(-c2ccc(C(F)(F)F)nc2)c(C)c(N)c1Cl [Compound 32] | B (85-94) | B (85-94) | 14 | 35 | A (95-100) | A (95-100) | 1 | 2 | B (85-94) | A (95-100) | 21 | 35 | A (95-100) | A (95-100) | 3 | 9 | <17.5 | <17.5 | G (0-29) | F (30-44) | Visual Growth Reduction (%) 21 Days After Application, SCPJU ([5]; 35 g ai/ha): A (95-100); Visual Growth Reduction (%) 21 Days After Application, SCPJU ([5]; 70 g ai/ha): A (95-100); GR20, ORYSS (ORYSS: Oryza sativa): 36 g ai/ha; Visual Growth Reduction (%) 21 Days After Application, LEFSS ([6]; 35 g ai/ha): F (30-44); Visual Growth Reduction (%) 21 Days After Application, LEFSS ([6]; 70 g ai/ha): E (45-59); GR50, LEFSS [6]: 59 g ai/ha; GR80, LEFSS [6]: 133 g ai/ha |
| COC(=O)c1nc(-c2ccc(Cl)nc2F)c(F)c(N)c1Cl [Compound 45] | G (0-29) | G (0-29) | >140 | >140 | B (85-94) | A (95-100) | 3 | 7 | F (30-44) | B (85-94) | 16 | >140 | A (95-100) | A (95-100) | 1 | 2 | 1 | 1 | G (0-29) | G (0-29) | GR20, ORYSS (ORYSS: Oryza sativa): >140 g ai/ha; Visual Growth Reduction (%) 21 Days After Application, LEFSS ([6]; 35 g ai/ha): G (0-29); Visual Growth Reduction (%) 21 Days After Application, LEFSS ([6]; 70 g ai/ha): D (60-74); GR50, LEFSS [6]: >140 g ai/ha; GR80, LEFSS [6]: >140 g ai/ha |
| Nc1c(Cl)c(C(=O)O)nc(-c2ccc(C(F)(F)F)nc2)c1Cl [Compound 33] | A (95-100) | A (95-100) | 3 | 11 | A (95-100) | A (95-100) | 4 | 7 | C (75-84) | A (95-100) | 1 | 1 | A (95-100) | A (95-100) | 1 | 1 | <17.5 | <17.5 | D (60-74) | C (75-84) | Visual Growth Reduction (%) 21 Days After Application, SCPJU ([5]; 35 g ai/ha): A (95-100); Visual Growth Reduction (%) 21 Days After Application, SCPJU ([5]; 70 g ai/ha): A (95-100); GR20, ORYSS (ORYSS: Oryza sativa): 8 g ai/ha; Visual Growth Reduction (%) 21 Days After Application, LEFSS ([6]; 35 g ai/ha): E (45-59); Visual Growth Reduction (%) 21 Days After Application, LEFSS ([6]; 70 g ai/ha): C (75-84); GR50, LEFSS [6]: 30 g ai/ha; GR80, LEFSS [6]: 77 g ai/ha |
